Measured values: patent publication US20250268844A1, “ANTICANCER AGENTS BASED ON CYCLOPENTENONES” (UNIVERSITY OF CRETE, priority 2022, published 2025)
Blank lines part the entries; values can stand above or below the molecule they belong to.

Assays:
[1] = system: A2780 ovarian carcinoma cells; experiment: MTT conversion assay, A2780; type: cell-based, human; conditions: 48 hrs treatment
Experimental: (§1) In particular, Enone-1 and Enone-2 were tested for cytotoxic activity in 17 cell lines representing a broad spectrum of human tumors. They include human colorectal carcinoma (Caco2, RKO, HCT15, HT29), liver (HepG2), lung (A549), ovarian carcinoma (A2780, 2780CP, AGE60, SKOV3), anaplastic large cell lymphoma (Mac1 and Mac2a), breast carcinoma (MDA-MB-231), cervical (HeLa), bladder cancer (VM-CUB-1), melanoma (BRO), and multiple myeloma (MR20).
(§2) Each assay was performed in triplicate and repeated in 2-3 independent experiments. Specifically, to measure cell survival, 20 μl of 10 mg/ml MTT (3-([…])-2,5-diphenyl tetrazolium bromide; Sigma) was added to each well and the plates were incubated at 37° C. in 5% CO2 for 3 hours. The supernatant was removed and the formed crystals were dissolved in 200 μl dimethyl sulphoxide. The plates were then analysed at 450 nm on a plate reader. Growth inhibition (reduction in survival) was calculated by expressing the differences in optical densities between treatment wells and control wells as a percentage of the control.

[2] = system: 2780CP, a cis-platin-resistant derivative of A2780; experiment: MTT conversion assay, 2780CP; type: cell-based, human; conditions: for IC50: 2780CP, ovarian, cis-platin-resistant, 48 hrs treatment, MTT; for sensitivity of 2780CP cells compared with cis-platin-sensitive A2780 cells: MTT conversion assays
Experimental: as §1, §2
Resistance to platinum-based chemotherapy is a major problem in oncology that impacts therapeutic options and limits patient survival. This is relevant to several types of malignancy, including ovarian cancer where platinum resistance frequently occurs. As Enone-1 and 2 show efficacy in reducing survival of A2780 ovarian carcinoma cells, the drugs were also tested in 2780CP, a cis-platin-resistant derivative of A2780 [13].

[3] = system: SKOV3 ovarian carcinoma cells; experiment: MTT conversion assay, SKOV3; type: cell-based, human
Experimental: as §1, §2

[4] = system: AGE60 ovarian carcinoma cells; experiment: MTT conversion assay, AGE60; type: cell-based, human; conditions: 48 hrs treatment
Experimental: as §1, §2

[5] = system: RKO colorectal carcinoma cells; experiment: MTT conversion assay, RKO; type: cell-based, human; conditions: colon, 48 hrs treatment
Experimental: as §1, §2

[6] = system: HT29 colorectal carcinoma cells; experiment: MTT conversion assay, HT29; type: cell-based, human; conditions: 48 hrs treatment
Experimental: as §1, §2

[7] = system: HCT15 colorectal carcinoma cells; experiment: MTT conversion assay, HCT15; type: cell-based, human; conditions: 48 hrs treatment
Experimental: as §1, §2

HepG2 liver cells = experiment: MTT conversion assay, HepG2; type: cell-based, human; conditions: 48 hrs treatment
Experimental: as §1, §2

A549 lung cells = experiment: MTT conversion assay, A549; type: cell-based, human; conditions: 48 hrs treatment
Experimental: as §1, §2

[8] = system: MDA-MB-231 breast carcinoma cells; experiment: MTT conversion assay, MDA-MB-231; type: cell-based, human; conditions: 48 hrs treatment
Experimental: as §1, §2

[9] = system: MR20 multiple myeloma cells; experiment: MTT conversion assay, MR20; type: cell-based, human; conditions: 48 hrs treatment
Experimental: as §1, §2

[10] = system: HeLa cervical carcinoma cells; experiment: MTT conversion assay, HeLa; type: cell-based, human; conditions: 48 hrs treatment
Experimental: as §1, §2

[11] = system: VM-CUB-1 bladder cancer cells; experiment: MTT conversion assay, VM-CUB-1; type: cell-based, human; conditions: 48 hrs treatment
Experimental: as §1, §2

BRO melanoma cells = experiment: MTT conversion assay, BRO; type: cell-based, human; conditions: 48 hrs treatment
Experimental: as §1, §2

[12] = system: A2780 ovarian cancer cells; experiment: PrestoBlue cell viability assay; type: cell-based, human; conditions: 72 hrs treatment, n=3 experiments
Experimental: The effects of Enone-1 and Enone-2 on cancer cells were confirmed using a second methodology, namely the PrestoBlue assay (PrestoBlue™ Cell Viability Reagent, Thermo Fisher, Catalog number: A13261), a cell permeable resazurin-based solution that functions as a cell viability indicator. A2780 ovarian cancer cells were plated as described above for the MTT assays and Enone drugs were added at increasing concentrations as indicated in FIG. 2. Cell viability was determined 72 hrs later following the addition of PrestoBlue, according to the manufacturer's instructions (Thermo Fisher).

[13] = system: MB49 mouse bladder carcinoma cells; experiment: MTT assay, MB49; type: cell-based; conditions: 48 hrs
Experimental: FIG. 5: Effects of enone compounds on mouse tumor growth.
as §2
First, the impact of Enone-1 and Enone-2 on the survival of MB49 cells was verified by MTT assays performed as described in FIG. 1.

p53 [14] = experiment: p53 immunoblot in A2780 cells; type: cell-based, human; conditions: 2.5 μM or increasing concentrations, 6 hrs or time course
Experimental: (§3) FIG. 8: Enones induce the p53 pathway. […] Cell lysates were analyzed for p53 and GAPDH (loading control). (B) A2780 cells were cultured in the presence or absence of 2.5 μM for the indicated time points before being analyzed for p53 and GAPDH levels. (C) Treatment of A2780 cells with 2.5 μM Enone-2 results in the up-regulation of p53-regulated genes (*p<0.05; **p<0.01; ***p<0.001, n=4). (D) Induction of p53 accumulation in AGE60 ovarian carcinoma cells following 6 or 14 hr exposure to 2.5 μM Enone-2. (E) Enone-1 induces the p53 pathway in A2780 cells which were cultured in the presence of 2.5 μM of the drug and analyzed as in (B). (F) Treatment of A2780 cells with 2.5 μM Enone-2 results in the up-regulation of p53-regulated genes (*p<0.05; **p<0.01; ***p<0.001, n=3).
(§4) The effects of Enone-2 on p53 and p53-dependent transcription of cell cycle and cell death-associated genes was confirmed by immunoblotting for p53 and by reverse transcription qPCR (RT-qPCR) for mdm2, p21, bax and bbc3/puma, established p53 target genes.

γH2Ax = γH2Ax immunoblot (DNA damage response marker) in A2780 cells; type: cell-based, human; conditions: 6 hrs, increasing concentrations, relative to untreated controls
Experimental: (§5) FIG. 9. […] A2780 cells were cultured for 6 hrs in the presence of drug concentrations as indicated. (B) Effects of siRNA targeting RPL11 (siRPL11), Chek2 (siChek2) or the unrelated luciferase (Luci) genes on RPL11 and Chek2 mRNA levels quantified by RT-PCR. (C) Effects of siRpl11 on Enone-2 and oxaliplatin (OXA)-induced p53 activation. Expression levels relative to GAPDH are indicated; untreated controls (CNT) were given the arbitrary value of 1. […] Expression levels relative to GAPDH are indicated; untreated controls (CNT) were given the arbitrary value of 1.

p53 [15] = experiment: siRNA knockdown of Chek2 or Rpl11 and drug-induced p53 activation in A2780 cells; type: cell-based, human; conditions: A2780 transiently transfected with siRNAs
Experimental: as §5
To further validate this observation, A2780 cells were transiently transfected with siRNAs targeting Chek2 which is required for DDR-induced p53, or Rpl11 which is required for RS-mediated p53 activation. The efficacy and specificity of the knockdowns were confirmed by RT-qPCR (FIG. 9B).

[16] = system: Caco-2 colorectal carcinoma cells; experiment: MTT conversion assay, Caco-2; type: cell-based; conditions: Homo sapiens, Caco-2, colon, 48 hrs treatment
Experimental: as §1, §2

[17] = system: mdm2, p21, bax and bbc3/puma; experiment: RT-qPCR of p53 target genes in A2780 cells; type: cell-based, human; conditions: 2.5 μM
Experimental: as §3, §4

SMILES: N.N.[Cl][Pt][Cl] [cis-platin, reference compound]
IC50 [1]: 1.4 µM
IC50 [2]: 10 µM
sensitivity of 2780CP cells compared with cis-platin-sensitive A2780 cells [2]: less sensitive
IC50 ([3]; 48 hrs treatment): 4 µM
IC50 [4]: 5 µM
IC50 [5]: 19 µM
IC50 ([6]; HT29, colon): 13.5 µM
IC50 ([7]; HCT15, colon): 14 µM
IC50 (HepG2 liver cells): 9 µM
IC50 (A549 lung cells): 7.5 µM
IC50 [8]: 32 µM
IC50 [9]: ~5.8 µM
IC50 ([9]; listed as Cis-platin): 5.8 µM
IC50 [10]: ~31 µM
IC50 ([10]; listed as Cis-platin): 31 µM
IC50 [11]: 7.9 µM
IC50 (BRO melanoma cells): 15.2 µM
IC50 [12]: 1.4 µM
IC50 [13]: 3.8 µM
p53 accumulation (immunoblot) (p53 [14]): less effective
γH2Ax induction (marker of DDR) (γH2Ax): induced γH2Ax
effect of Chek2 or Rpl11 siRNA knockdown on drug-induced p53 activation (p53 [15]): Chek2 knockdown ameliorated cis-platin-induced p53 activation

IC50 ([1]; Homo sapiens): 0.6 µM
IC50 ([2]; Homo sapiens, A2780): 0.75 µM
IC50 ([3]; Homo sapiens, SK-OV-3, 48 hrs treatment): 0.8 µM
IC50 ([4]; Homo sapiens, Ovarian carcinoma cell): 1 µM
IC50 ([5]; Homo sapiens): 1.3 µM
IC50 ([6]; Homo sapiens, HT-29, HT29, colon): 1.2 µM
IC50 [16]: 1.8 µM
IC50 ([7]; Homo sapiens, HCT-15, HCT15, colon): 1.2 µM
IC50 (HepG2 liver cells; Homo sapiens): 3.8 µM
IC50 (A549 lung cells; Homo sapiens): 1.7 µM
IC50 ([9]; Homo sapiens, Multiple myeloma cell): 0.05 µM
IC50 ([11]; Homo sapiens): 1.2 µM
IC50 (BRO melanoma cells; Homo sapiens): 3.9 µM
IC50 ([12]; Homo sapiens): 0.2 µM
IC50 [13]: 1.4 µM
SMILES: C[C@@]1(O)C=CC(=O)C1c1ccc2ccccc2c1 (stereo in doubt) [Enone-1, 4-hydroxy-4-methyl-5-(naphthalen-2-yl)cyclopent-2-en-1-one]
sensitivity of 2780CP cells compared with cis-platin-sensitive A2780 cells [2]: nearly as sensitive
sensitivity of 2780CP cells compared with cis-platin-sensitive A2780 cells ([2]; listed as Enone1): remain sensitive
p53 accumulation (immunoblot) (p53 [14]): induce p53
mdm2, p21, bax and bbc3/puma mRNA (p53-dependent gene expression) [17]: induce p53 and p53-dependent gene expression

SMILES: O=C1[O][Pt]2([NH][C@@H]3CCCC[C@H]3[NH]2)[O]C1=O [oxaliplatin, reference compound]
IC50 [12]: 0.27 µM
effect of Chek2 or Rpl11 siRNA knockdown on drug-induced p53 activation (p53 [15]): depletion of Rpl11 reduced oxaliplatin-induced p53 accumulation
